This is an account of results in the kinase profiling compilation of Christmann-Franck et al. (2016).

PRKCB2 (human), sequence (P05771 whole entry, looked up): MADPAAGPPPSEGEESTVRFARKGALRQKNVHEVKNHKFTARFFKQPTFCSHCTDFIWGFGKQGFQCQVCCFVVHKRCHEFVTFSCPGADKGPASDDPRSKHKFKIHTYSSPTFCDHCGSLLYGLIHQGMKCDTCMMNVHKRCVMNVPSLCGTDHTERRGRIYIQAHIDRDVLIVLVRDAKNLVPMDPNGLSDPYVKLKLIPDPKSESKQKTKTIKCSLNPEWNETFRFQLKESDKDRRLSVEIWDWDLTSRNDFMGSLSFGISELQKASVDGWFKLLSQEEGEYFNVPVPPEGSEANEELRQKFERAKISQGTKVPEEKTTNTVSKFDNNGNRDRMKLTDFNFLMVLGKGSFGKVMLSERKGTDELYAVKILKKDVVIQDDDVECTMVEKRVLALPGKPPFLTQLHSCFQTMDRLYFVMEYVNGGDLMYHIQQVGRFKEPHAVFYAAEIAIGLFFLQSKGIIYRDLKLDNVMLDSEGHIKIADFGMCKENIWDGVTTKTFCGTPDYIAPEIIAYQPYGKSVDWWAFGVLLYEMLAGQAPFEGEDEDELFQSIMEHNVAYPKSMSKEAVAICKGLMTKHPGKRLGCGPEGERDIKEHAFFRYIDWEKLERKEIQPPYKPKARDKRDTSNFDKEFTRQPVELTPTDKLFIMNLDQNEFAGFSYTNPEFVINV
CSNK1E (human), sequence (P49674 whole entry, looked up): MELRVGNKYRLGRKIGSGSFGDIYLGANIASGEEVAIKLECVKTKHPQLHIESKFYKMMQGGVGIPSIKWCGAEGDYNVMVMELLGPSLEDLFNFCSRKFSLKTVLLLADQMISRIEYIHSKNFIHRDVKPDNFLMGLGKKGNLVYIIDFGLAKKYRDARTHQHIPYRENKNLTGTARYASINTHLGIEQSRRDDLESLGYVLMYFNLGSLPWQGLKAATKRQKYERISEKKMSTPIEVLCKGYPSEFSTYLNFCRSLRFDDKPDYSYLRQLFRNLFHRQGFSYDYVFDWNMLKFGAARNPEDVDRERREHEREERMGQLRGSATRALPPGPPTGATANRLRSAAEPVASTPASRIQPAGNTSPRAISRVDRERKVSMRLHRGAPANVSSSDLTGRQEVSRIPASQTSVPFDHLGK
OXSR1 (human), sequence (O95747 whole entry, looked up): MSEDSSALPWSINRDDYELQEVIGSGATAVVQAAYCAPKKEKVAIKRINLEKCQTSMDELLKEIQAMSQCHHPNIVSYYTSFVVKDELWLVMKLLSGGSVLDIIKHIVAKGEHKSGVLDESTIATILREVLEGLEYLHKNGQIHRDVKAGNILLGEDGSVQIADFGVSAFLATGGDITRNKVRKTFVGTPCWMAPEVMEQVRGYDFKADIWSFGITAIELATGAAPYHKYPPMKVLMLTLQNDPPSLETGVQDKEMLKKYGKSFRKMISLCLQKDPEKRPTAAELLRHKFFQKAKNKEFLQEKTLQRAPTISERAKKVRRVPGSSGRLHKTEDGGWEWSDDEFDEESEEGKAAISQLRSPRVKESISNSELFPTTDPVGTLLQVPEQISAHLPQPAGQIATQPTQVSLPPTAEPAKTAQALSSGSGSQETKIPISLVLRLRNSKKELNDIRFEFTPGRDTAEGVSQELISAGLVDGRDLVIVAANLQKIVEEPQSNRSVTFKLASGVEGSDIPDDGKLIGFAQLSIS

The first experiment addresses FGFR2 (human) (UniProt P21802). Briefly: radiometric filter-binding kinase assay, Kinase HotSpot. Particulars: compound 0.5 µM; ATP 10 µM.
Broadly, the residual activity is the signal under treatment as a percentage of the control signal. As to `c1ccc(-c2n[nH]c3c2oc2ccccc23)cc1`, the residual activity was 97%.

In the case of `CC#CC(=O)Nc1cc2c(Nc3ccc(F)c(Cl)c3)ncnc2cn1`, the residual activity was 101%.

On to `Nc1ncnc2c1c(-c1ccc(Oc3ccccc3)cc1)cn2C1CCCC1`, for which the residual activity amounted to 78%.

Another experiment concerns the target ERBB2 (human) (UniProt P04626). Described as above. Particulars: compound 0.5 µM; ATP 10 µM.
On to `c1ccc(-c2n[nH]c3c2oc2ccccc23)cc1`, for which the residual activity amounted to 104%.

As for `CC#CC(=O)Nc1cc2c(Nc3ccc(F)c(Cl)c3)ncnc2cn1`, the residual activity amounted to 2.36%.

With `Nc1ncnc2c1c(-c1ccc(Oc3ccccc3)cc1)cn2C1CCCC1`, the residual activity came out at 101%.

In the next experiment the target is MAP3K11 (human) (UniProt Q16584). Described as above. As to conditions: compound 0.5 µM; ATP 10 µM.
As for `c1ccc(-c2n[nH]c3c2oc2ccccc23)cc1`, the residual activity was 91.8%.

With `CC#CC(=O)Nc1cc2c(Nc3ccc(F)c(Cl)c3)ncnc2cn1`, the residual activity was 99.3%.

For `Nc1ncnc2c1c(-c1ccc(Oc3ccccc3)cc1)cn2C1CCCC1`, the residual activity was determined as 92.9%.

Another experiment concerns the target CLK2 (human) (UniProt P49760). The description is as above. Particulars: compound 0.5 µM; ATP 10 µM.
For the compound `c1ccc(-c2n[nH]c3c2oc2ccccc23)cc1`, the residual activity is 94.8%.

For `CC#CC(=O)Nc1cc2c(Nc3ccc(F)c(Cl)c3)ncnc2cn1`, the residual activity was 100%.

`Nc1ncnc2c1c(-c1ccc(Oc3ccccc3)cc1)cn2C1CCCC1`: the residual activity turned out to be 95.2%.

The next experiment has as its target PRKCB2 (human) (UniProt P05771). The experiment is described as above. As to conditions: compound 0.5 µM; ATP 10 µM.
As to `c1ccc(-c2n[nH]c3c2oc2ccccc23)cc1`, the residual activity was 113%.

In the case of `CC#CC(=O)Nc1cc2c(Nc3ccc(F)c(Cl)c3)ncnc2cn1`, the residual activity came to 99.5%.

As to `Nc1ncnc2c1c(-c1ccc(Oc3ccccc3)cc1)cn2C1CCCC1`, the residual activity was determined as 107%.

For the next experiment, the target named is PRKCZ (human) (UniProt Q05513). The description is as above. As to conditions: compound 0.5 µM; ATP 10 µM.
PRKCZ (human), sequence (Q05513 whole entry, looked up): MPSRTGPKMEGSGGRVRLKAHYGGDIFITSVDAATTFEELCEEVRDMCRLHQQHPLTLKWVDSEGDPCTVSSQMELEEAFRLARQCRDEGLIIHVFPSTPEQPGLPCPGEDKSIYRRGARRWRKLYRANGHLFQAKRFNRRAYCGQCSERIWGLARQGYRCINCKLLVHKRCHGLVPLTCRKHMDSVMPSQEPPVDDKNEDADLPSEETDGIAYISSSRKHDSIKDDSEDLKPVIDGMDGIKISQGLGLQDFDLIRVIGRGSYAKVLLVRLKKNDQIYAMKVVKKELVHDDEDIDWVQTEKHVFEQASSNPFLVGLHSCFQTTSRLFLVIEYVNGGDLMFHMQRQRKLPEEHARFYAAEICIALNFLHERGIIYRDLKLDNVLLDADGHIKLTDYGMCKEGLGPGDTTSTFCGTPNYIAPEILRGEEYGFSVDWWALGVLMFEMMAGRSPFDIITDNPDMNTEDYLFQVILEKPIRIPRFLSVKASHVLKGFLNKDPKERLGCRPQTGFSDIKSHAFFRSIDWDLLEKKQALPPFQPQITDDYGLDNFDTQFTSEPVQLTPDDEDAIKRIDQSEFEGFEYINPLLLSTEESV
With `c1ccc(-c2n[nH]c3c2oc2ccccc23)cc1`, the residual activity is 87.1%.

As to `CC#CC(=O)Nc1cc2c(Nc3ccc(F)c(Cl)c3)ncnc2cn1`, the residual activity was 114%.

Consider `Nc1ncnc2c1c(-c1ccc(Oc3ccccc3)cc1)cn2C1CCCC1`, for which the residual activity is 107%.

The target in the next experiment is ZAP70 (human) (UniProt P43403). The description is as above. As to conditions: compound 0.5 µM; ATP 10 µM.
For the compound `c1ccc(-c2n[nH]c3c2oc2ccccc23)cc1`, the residual activity was found to be 89%.

`CC#CC(=O)Nc1cc2c(Nc3ccc(F)c(Cl)c3)ncnc2cn1`: the residual activity stood at 90.4%.

Take `Nc1ncnc2c1c(-c1ccc(Oc3ccccc3)cc1)cn2C1CCCC1`: the residual activity was 102%.

The target of the next experiment is PTK2B (human) (UniProt Q14289). The description is as above. Particulars: compound 0.5 µM; ATP 10 µM.
PTK2B (human), sequence (Q14289 whole entry, looked up): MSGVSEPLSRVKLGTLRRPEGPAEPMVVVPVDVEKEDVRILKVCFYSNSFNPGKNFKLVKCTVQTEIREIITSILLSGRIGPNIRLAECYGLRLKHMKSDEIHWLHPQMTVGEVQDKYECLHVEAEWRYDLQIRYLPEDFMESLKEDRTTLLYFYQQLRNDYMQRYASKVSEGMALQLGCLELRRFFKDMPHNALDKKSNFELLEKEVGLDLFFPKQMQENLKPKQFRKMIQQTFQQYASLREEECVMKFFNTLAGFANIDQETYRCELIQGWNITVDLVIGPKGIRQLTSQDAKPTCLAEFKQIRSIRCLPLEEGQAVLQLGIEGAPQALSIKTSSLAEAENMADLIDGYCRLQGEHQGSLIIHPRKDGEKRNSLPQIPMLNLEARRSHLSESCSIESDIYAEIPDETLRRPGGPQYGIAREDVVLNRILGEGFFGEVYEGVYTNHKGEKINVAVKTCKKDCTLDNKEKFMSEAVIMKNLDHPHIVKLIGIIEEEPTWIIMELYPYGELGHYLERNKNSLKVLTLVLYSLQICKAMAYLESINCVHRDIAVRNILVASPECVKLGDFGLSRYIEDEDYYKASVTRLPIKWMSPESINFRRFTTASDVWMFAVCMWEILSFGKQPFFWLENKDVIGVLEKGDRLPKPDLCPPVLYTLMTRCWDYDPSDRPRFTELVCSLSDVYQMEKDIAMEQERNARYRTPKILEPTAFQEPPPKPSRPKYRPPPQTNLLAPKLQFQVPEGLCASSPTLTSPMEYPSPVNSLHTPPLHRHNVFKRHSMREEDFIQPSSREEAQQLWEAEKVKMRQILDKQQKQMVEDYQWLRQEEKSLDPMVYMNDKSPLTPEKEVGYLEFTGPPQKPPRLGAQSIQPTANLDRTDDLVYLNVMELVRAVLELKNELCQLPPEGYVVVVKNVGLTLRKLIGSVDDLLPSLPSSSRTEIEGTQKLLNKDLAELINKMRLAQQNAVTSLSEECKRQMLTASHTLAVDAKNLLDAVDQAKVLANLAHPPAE
As to `c1ccc(-c2n[nH]c3c2oc2ccccc23)cc1`, the residual activity is 96.8%.

Consider `CC#CC(=O)Nc1cc2c(Nc3ccc(F)c(Cl)c3)ncnc2cn1`, for which the residual activity was 94.1%.

With `Nc1ncnc2c1c(-c1ccc(Oc3ccccc3)cc1)cn2C1CCCC1`, the residual activity was found to be 96.7%.

The next experiment has as its target OXSR1 (human) (UniProt O95747). The experiment is described as above. Particulars: compound 0.5 µM; ATP 10 µM.
For `c1ccc(-c2n[nH]c3c2oc2ccccc23)cc1`, the residual activity was found to be 101%.

Regarding `CC#CC(=O)Nc1cc2c(Nc3ccc(F)c(Cl)c3)ncnc2cn1`, the residual activity came out at 109%.

Turning to `Nc1ncnc2c1c(-c1ccc(Oc3ccccc3)cc1)cn2C1CCCC1`, the residual activity worked out at 93.5%.

In another experiment the target is DDR2 (human) (UniProt Q16832). The description is as above. Particulars: compound 0.5 µM; ATP 10 µM.
As to `c1ccc(-c2n[nH]c3c2oc2ccccc23)cc1`, the residual activity was 96%.

As to `CC#CC(=O)Nc1cc2c(Nc3ccc(F)c(Cl)c3)ncnc2cn1`, the residual activity was 108%.

With `Nc1ncnc2c1c(-c1ccc(Oc3ccccc3)cc1)cn2C1CCCC1`, the residual activity was determined as 95%.

Another experiment deals with CAMK1D (human) (UniProt Q8IU85). Described as above. Particulars: compound 0.5 µM; ATP 10 µM.
CAMK1D (human), sequence (Q8IU85 whole entry, looked up): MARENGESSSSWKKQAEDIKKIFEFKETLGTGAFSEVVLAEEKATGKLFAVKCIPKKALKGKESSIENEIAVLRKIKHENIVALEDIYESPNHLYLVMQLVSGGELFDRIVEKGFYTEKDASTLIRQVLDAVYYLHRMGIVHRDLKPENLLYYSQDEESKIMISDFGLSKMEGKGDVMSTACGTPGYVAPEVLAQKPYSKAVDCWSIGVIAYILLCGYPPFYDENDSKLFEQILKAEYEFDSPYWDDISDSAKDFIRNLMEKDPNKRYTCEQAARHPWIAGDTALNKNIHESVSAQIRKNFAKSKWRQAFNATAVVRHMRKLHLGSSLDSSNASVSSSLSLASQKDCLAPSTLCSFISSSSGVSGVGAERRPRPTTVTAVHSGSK
`c1ccc(-c2n[nH]c3c2oc2ccccc23)cc1`: the residual activity was determined as 92.9%.

As to `CC#CC(=O)Nc1cc2c(Nc3ccc(F)c(Cl)c3)ncnc2cn1`, the residual activity was 107%.

As to `Nc1ncnc2c1c(-c1ccc(Oc3ccccc3)cc1)cn2C1CCCC1`, the residual activity is 50.3%.

For a further experiment, the target named is CDK6 CCND1 (human) (UniProt Q00534+P24385). The description is as above. Particulars: compound 0.5 µM; ATP 10 µM.
As for `c1ccc(-c2n[nH]c3c2oc2ccccc23)cc1`, the residual activity is 90.4%.

`CC#CC(=O)Nc1cc2c(Nc3ccc(F)c(Cl)c3)ncnc2cn1`: the residual activity worked out at 99%.

In the case of `Nc1ncnc2c1c(-c1ccc(Oc3ccccc3)cc1)cn2C1CCCC1`, the residual activity was found to be 98.2%.

In a further experiment the target is GRK7 (human) (UniProt Q8WTQ7). The experiment is described as above. Particulars: compound 0.5 µM; ATP 10 µM.
GRK7 (human), sequence (Q8WTQ7 whole entry, looked up): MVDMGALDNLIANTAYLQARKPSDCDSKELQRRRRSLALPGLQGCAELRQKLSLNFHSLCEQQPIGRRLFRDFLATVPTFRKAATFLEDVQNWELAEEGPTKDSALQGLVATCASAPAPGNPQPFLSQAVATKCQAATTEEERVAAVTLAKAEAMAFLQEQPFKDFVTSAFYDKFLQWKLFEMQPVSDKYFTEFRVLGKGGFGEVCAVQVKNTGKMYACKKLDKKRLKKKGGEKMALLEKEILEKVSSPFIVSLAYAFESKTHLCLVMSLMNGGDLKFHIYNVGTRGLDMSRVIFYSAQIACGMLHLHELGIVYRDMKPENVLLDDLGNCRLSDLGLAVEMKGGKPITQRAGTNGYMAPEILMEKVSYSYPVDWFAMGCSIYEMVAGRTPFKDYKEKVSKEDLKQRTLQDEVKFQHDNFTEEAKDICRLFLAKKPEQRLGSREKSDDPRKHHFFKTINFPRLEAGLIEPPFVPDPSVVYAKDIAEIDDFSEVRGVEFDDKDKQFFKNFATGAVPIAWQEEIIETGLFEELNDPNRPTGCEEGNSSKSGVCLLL
For the compound `c1ccc(-c2n[nH]c3c2oc2ccccc23)cc1`, the residual activity came out at 102%.

For the compound `CC#CC(=O)Nc1cc2c(Nc3ccc(F)c(Cl)c3)ncnc2cn1`, the residual activity stood at 106%.

On to `Nc1ncnc2c1c(-c1ccc(Oc3ccccc3)cc1)cn2C1CCCC1`, for which the residual activity came out at 114%.

Another experiment has as its target JAK2 JH1 JH2 (human) (UniProt O60674). The description is as above. Particulars: compound 0.5 µM; ATP 10 µM.
For the compound `c1ccc(-c2n[nH]c3c2oc2ccccc23)cc1`, the residual activity is 89.8%.

Regarding `CC#CC(=O)Nc1cc2c(Nc3ccc(F)c(Cl)c3)ncnc2cn1`, the residual activity came out at 97.4%.

As for `Nc1ncnc2c1c(-c1ccc(Oc3ccccc3)cc1)cn2C1CCCC1`, the residual activity turned out to be 104%.

The target of the next experiment is MAP3K14 (human) (UniProt Q99558). The experiment is described as above. Particulars: compound 0.5 µM; ATP 10 µM.
On to `c1ccc(-c2n[nH]c3c2oc2ccccc23)cc1`, for which the residual activity amounted to 71.8%.

For the compound `CC#CC(=O)Nc1cc2c(Nc3ccc(F)c(Cl)c3)ncnc2cn1`, the residual activity was determined as 80.4%.

For `Nc1ncnc2c1c(-c1ccc(Oc3ccccc3)cc1)cn2C1CCCC1`, the residual activity is 113%.

The target in a further experiment is NEK6 (human) (UniProt Q9HC98). The experiment is described as above. As to conditions: compound 0.5 µM; ATP 10 µM.
NEK6 (human), sequence (Q9HC98 whole entry, looked up): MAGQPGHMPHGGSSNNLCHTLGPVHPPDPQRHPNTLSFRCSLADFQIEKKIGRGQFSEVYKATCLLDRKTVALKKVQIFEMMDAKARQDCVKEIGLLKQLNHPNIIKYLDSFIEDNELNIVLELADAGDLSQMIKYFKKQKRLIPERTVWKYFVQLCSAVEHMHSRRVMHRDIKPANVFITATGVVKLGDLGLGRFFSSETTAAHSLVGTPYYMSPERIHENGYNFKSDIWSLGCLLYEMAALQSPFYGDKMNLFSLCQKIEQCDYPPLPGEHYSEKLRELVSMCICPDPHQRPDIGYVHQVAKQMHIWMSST
As to `c1ccc(-c2n[nH]c3c2oc2ccccc23)cc1`, the residual activity is 99%.

Consider `CC#CC(=O)Nc1cc2c(Nc3ccc(F)c(Cl)c3)ncnc2cn1`, for which the residual activity came out at 97.5%.

As to `Nc1ncnc2c1c(-c1ccc(Oc3ccccc3)cc1)cn2C1CCCC1`, the residual activity came out at 107%.

Another experiment has as its target CSNK1E (human) (UniProt P49674). The experiment is described as above. Particulars: compound 0.5 µM; ATP 10 µM.
`c1ccc(-c2n[nH]c3c2oc2ccccc23)cc1`: the residual activity was determined as 91.8%.

Regarding `CC#CC(=O)Nc1cc2c(Nc3ccc(F)c(Cl)c3)ncnc2cn1`, the residual activity came to 93.6%.

On to `Nc1ncnc2c1c(-c1ccc(Oc3ccccc3)cc1)cn2C1CCCC1`, for which the residual activity worked out at 22.3%.

For another experiment, the target named is MAPK10 (human) (UniProt P53779). Described as above. Particulars: compound 0.5 µM; ATP 10 µM.
`c1ccc(-c2n[nH]c3c2oc2ccccc23)cc1`: the residual activity is 93.4%.

As to `CC#CC(=O)Nc1cc2c(Nc3ccc(F)c(Cl)c3)ncnc2cn1`, the residual activity was found to be 85.4%.

With `Nc1ncnc2c1c(-c1ccc(Oc3ccccc3)cc1)cn2C1CCCC1`, the residual activity was determined as 87.4%.

The target of the next experiment is LCK (human) (UniProt P06239). Described as above. As to conditions: compound 0.5 µM; ATP 10 µM.
`c1ccc(-c2n[nH]c3c2oc2ccccc23)cc1`: the residual activity was determined as 99.3%.

For the compound `CC#CC(=O)Nc1cc2c(Nc3ccc(F)c(Cl)c3)ncnc2cn1`, the residual activity came to 92.2%.

`Nc1ncnc2c1c(-c1ccc(Oc3ccccc3)cc1)cn2C1CCCC1`: the residual activity is 1.12%.

For a further experiment, the target named is STK33 (human) (UniProt Q9BYT3). Described as above. Particulars: compound 0.5 µM; ATP 10 µM.
STK33 (human), sequence (Q9BYT3 whole entry, looked up): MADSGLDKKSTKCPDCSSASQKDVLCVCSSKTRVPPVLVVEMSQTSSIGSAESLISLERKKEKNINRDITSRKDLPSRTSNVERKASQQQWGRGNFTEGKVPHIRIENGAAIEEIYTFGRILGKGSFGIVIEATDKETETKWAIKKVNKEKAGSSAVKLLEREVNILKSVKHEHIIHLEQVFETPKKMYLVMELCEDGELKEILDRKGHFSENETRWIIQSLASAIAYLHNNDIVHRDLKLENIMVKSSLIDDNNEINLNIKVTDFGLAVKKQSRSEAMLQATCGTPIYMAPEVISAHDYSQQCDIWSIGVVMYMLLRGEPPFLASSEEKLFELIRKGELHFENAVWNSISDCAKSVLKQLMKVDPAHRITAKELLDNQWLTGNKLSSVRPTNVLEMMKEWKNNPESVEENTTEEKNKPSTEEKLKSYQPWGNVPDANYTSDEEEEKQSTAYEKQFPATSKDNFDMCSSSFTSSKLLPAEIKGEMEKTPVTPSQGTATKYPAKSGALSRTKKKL
Consider `c1ccc(-c2n[nH]c3c2oc2ccccc23)cc1`, for which the residual activity was found to be 96.5%.

On to `CC#CC(=O)Nc1cc2c(Nc3ccc(F)c(Cl)c3)ncnc2cn1`, for which the residual activity amounted to 88.5%.

Regarding `Nc1ncnc2c1c(-c1ccc(Oc3ccccc3)cc1)cn2C1CCCC1`, the residual activity came out at 92.3%.
